A word on the Ki: it is the equilibrium dissociation constant of an inhibitor or competing ligand from its target. Low values mean tighter binding, high ones weaker binding.

Molecules are shown by their SMILES.

Data set [1] addresses Neuronal acetylcholine receptor subunit alpha-7 (Rattus norvegicus, UniProt Q05941). In words: Displacement of [125I]-alpha-bungarotoxin from alpha7 nicotinic acetylcholine receptor in Wistar rat frontal cortex by gamma counting. Format: tissue-based.
A further data set concerns Midbrain. In words: Biodistribution in Wistar rat midbrain at 5 +/- 2 MBq, iv after 60 mins by gamma counting in presence of alpha7 nAChR antagonist methyllycaconitine. In kind it is organism-based, Brain. The following applies: in vivo, 1 h.
The subject of the next data set is Cerebellum. In words: Biodistribution in Wistar rat cerebellum at 5 +/- 2 MBq, iv after 60 mins by gamma counting in presence of alpha7 nAChR antagonist methyllycaconitine. In kind it is organism-based. As to conditions: in vivo, 1 h; call rule not given here.
The test system of the next data set is Brain. In words: Biodistribution in Wistar rat brain at 5 +/- 2 MBq, iv after 60 mins by gamma counting. In kind it is ADME, organism-based. The following applies: in vivo, 1 h.
The next data set deals with Cortex. In words: Biodistribution in Wistar rat cortex at 5 +/- 2 MBq, iv after 60 mins by gamma counting in presence of alpha7 nAChR antagonist methyllycaconitine. The following applies: in vivo, 1 h. In kind it is organism-based.
The subject of another data set is Hypothalamus. In words: Biodistribution in Wistar rat hypothalamus at 5 +/- 2 MBq, iv after 60 mins by gamma counting in presence of alpha7 nAChR antagonist methyllycaconitine. As to conditions: in vivo, 1 h. Format: organism-based.
In another data set the test system is Hippocampus. In words: Biodistribution in Wistar rat hippocampus at 5 +/- 2 MBq, iv after 60 mins by gamma counting in presence of alpha7 nAChR antagonist methyllycaconitine. Format: organism-based. As to conditions: in vivo, 1 h.
The subject of another data set is Striatum. In words: Biodistribution in Wistar rat striatum at 5 +/- 2 MBq, iv after 60 mins by gamma counting in presence of alpha7 nAChR antagonist methyllycaconitine. Format: organism-based. The following applies: in vivo, 1 h.

Neuronal acetylcholine receptor subunit alpha-7, sequence (Q05941 whole entry): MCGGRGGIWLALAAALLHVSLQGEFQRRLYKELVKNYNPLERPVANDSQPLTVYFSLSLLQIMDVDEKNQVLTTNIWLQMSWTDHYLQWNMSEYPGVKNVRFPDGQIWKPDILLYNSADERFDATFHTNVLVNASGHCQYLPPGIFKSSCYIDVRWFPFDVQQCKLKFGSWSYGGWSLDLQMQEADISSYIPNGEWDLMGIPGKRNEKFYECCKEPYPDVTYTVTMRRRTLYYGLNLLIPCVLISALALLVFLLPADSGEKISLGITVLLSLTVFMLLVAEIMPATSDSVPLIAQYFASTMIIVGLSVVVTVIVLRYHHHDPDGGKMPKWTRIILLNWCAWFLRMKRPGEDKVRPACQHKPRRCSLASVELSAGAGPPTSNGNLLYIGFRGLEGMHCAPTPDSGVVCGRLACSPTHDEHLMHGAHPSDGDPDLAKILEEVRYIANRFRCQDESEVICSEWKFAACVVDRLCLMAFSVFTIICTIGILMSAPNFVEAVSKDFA

As to `CN1[C@@H]2CC[C@H]1C[C@@H](NC(=O)c1ccc3sccc3c1)C2`, in data set [1], the Ki was 108 nM.
Same read-out and setting: for `CN1[C@@H]2CC[C@H]1C[C@@H](NC(=O)c1cccs1)C2` the value was above 1000 nM.
On to `O=C(N[C@H]1CN2CCC1CC2)c1ccc([18F])cc1`, for which the Drug uptake entry in the data set on Midbrain is reported as “Not Active”; with Cerebellum, “Not Active”; in the data set with Brain, “Active”; in the data set with Cortex, “Not Active”; in the data set on Hypothalamus, “Not Active”; with Hippocampus, “Not Active”. In addition, the Drug uptake entry in the data set on Striatum was “Not Active”.
Regarding `CN1[C@@H]2CC[C@H]1C[C@@H](NC(=O)c1ccc3occc3c1)C2`, the affinity in data set [1], expressed as Ki, was 133 nM.
Same read-out and setting: for `CN1[C@@H]2CC[C@H]1C[C@@H](NC(=O)c1ccc(-c3cccs3)s1)C2` the value was 12 nM; for `CN1[C@@H]2CC[C@H]1C[C@@H](NC(=O)c1ccc(-c3ccco3)s1)C2`, 14 nM; for `CN1[C@@H]2CC[C@H]1C[C@@H](NC(=O)c1ccc(Br)s1)C2`, 78 nM.
Same read-out and setting: with `CN1[C@@H]2CC[C@H]1C[C@@H](NC(=O)c1ccc(Cl)cc1)C2` the figure was above 1000 nM.

These data come from ChEMBL document CHEMBL3286186, “Design of α7 nicotinic acetylcholine receptor ligands in quinuclidine, tropane and quinazoline series. Chemistry, molecular modeling, radiochemistry, in vitro and in rats evaluations of a [(18)F] quinuclidine derivative” (Eur J Med Chem, 2014).
